Holding throughout (assay type): in vivo
Assay [1] has as its target T1, P2X7R (Rattus norvegicus, UniProt Q64663).
T1 construct: upregulation of the tubular expression of the P2X7R; from tissue; host or cells: kidney of living Sprague-Dawley rats (sham, BDL, BDL+LPS); compounds dosed in vivo
T1 sequence (Q64663 1-595): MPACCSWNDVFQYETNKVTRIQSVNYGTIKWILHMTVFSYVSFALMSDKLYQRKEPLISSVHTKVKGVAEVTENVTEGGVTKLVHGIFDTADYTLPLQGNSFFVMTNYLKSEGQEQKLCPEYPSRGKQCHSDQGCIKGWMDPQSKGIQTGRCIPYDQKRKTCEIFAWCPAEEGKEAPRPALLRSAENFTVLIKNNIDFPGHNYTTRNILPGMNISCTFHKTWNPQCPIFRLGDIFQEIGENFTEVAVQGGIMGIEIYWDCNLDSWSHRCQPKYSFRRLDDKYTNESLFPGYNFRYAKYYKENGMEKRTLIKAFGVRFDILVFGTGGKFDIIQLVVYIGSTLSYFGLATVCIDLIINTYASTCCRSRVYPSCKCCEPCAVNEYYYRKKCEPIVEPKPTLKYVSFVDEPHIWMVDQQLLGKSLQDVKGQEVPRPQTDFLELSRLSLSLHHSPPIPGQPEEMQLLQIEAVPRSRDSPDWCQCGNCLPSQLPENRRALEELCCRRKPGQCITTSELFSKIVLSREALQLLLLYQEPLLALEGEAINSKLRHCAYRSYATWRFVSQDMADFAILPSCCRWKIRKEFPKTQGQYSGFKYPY
Description: Creatinine in BDL rats given LPS infusion with intra-renal P2X7R agonist. Particulars: LPS 0.25 mg/kg iv over 3 hours. The text has this:
(§1) These experiments utilised an established animal model of cirrhosis, the bile duct ligated (BDL) rat. BDL rats may be generated by methods known in the art. For example, male Sprague-Dawley rats (200-250 g) may be used for this procedure. Following anaesthetisation, a mid-line laparotamy may be performed, the bile duct exposed, triply ligated with 4.0 silk suture, and severed between the second and third ligature. The wound is then closed in layers with absorbable suture, and the animal allowed to recover in a quiet room before being returned to the animal storage facility. Sham animals underwent sham laparotomy. The BDL model was studied 4 weeks after bile duct ligation and liver histology confirmed advanced fibrosis.
Rats were given a continuous intravenous infusion of LPS at 0.25 mg/kg over 3 hours. The P2X7R agonist BzATP was infused into the renal artery 30 mins before LPS infusion began and continued for the duration of the experiment at a dose of 150 μg/hour.

The target in assay [2] is T1, P2X7R. The assay can be described thus: P2X7 receptor expression in kidneys, cirrhotic AKI model (BDL rat + LPS), immunohistochemistry. The following applies: 300 μmol/kg IP 12-hourly for 7 days, with or without LPS 0.5 mg/kg IP, n=3 in each group, FIG. 3.
Source text: as §1
(§2) LPS (lipopolysaccharide) was given at a dose of 0.5 mg/kg intra-peritoneal. The P2X7R antagonist (A-438079) was given at a dose of 300 μmol/kg 12-hourly 7 days before LPS was given (if applicable). Animals were terminated 3 hours post LPS dose. P2X7RA=P2X7R antagonist.
Urine was collected for assessment of urinary biomarkers of acute kidney injury (AKI). Blood was collected for biochemistry, endotoxin and cytokine analysis. Tissue was collected for histology, immunohistochemistry and western blot. Brain frontal cortex was collected to ascertain brain water. Biochemistry was measured using COBAS integra. Urinary NGAL was measured by ELISA. […]

Assay [3] has as its target T1, P2X7R. The assay can be described thus: Biomarkers of acute kidney injury in cirrhotic AKI model (BDL rat + LPS) with P2X7R antagonist. Particulars: 300 μmol/kg 12-hourly 7 days before LPS 0.5 mg/kg IP, terminated 3 hours post LPS.
Source text: as §1, §2
Urine was collected for assessment of urinary biomarkers of acute kidney injury (AKI). Blood was collected for biochemistry, endotoxin and cytokine analysis. Tissue was collected for histology, immunohistochemistry and western blot. Brain frontal cortex was collected to ascertain brain water. Biochemistry was measured using COBAS integra. Urinary NGAL was measured by ELISA.

With “2′(3′)-O-(4-Benzoylbenzoyl)adenosine-5′-triphosphate [BzATP]”, the “Creatinine (mean)” value in assay [1] (BDL + LPS + BzATP group, 150 μg/hour into renal artery) turned out to be 57.93 µmol/L. For the same molecule, in assay [1] (BDL rat, infused into renal artery 150 μg/hour from 30 mins before LPS, FIG. 7), the “reduction of LPS induced rise in creatinine” value amounted to 24%.

On to `Clc1cccc(-c2nnnn2Cc2cccnc2)c1Cl` [A-438079], for which, in assay [2], the “increased P2X7 receptor expression in kidneys (tubular expression) of BDL and BDL+LPS animals” value is given as “attenuated”. The “biomarkers of acute kidney injury (urine NGAL, creatinine) compared to the other groups” value was “greater” in assay [3] (FIG. 4) and “higher” in assay [3] (FIG. 4, listed as P2X7R antagonist).

Values taken from patent US20160120938A1, “P2X7 RECEPTOR AGONIST FOR USE IN PREVENTING OR TREATING KIDNEY INJURY” (UCL BUSINESS PLC, priority 2013, published 2016).
